Assays:
[1] = Dynamic light scattering: hydrodynamic size and polydispersity index (PDI) of nanoparticles; type: physicochemical; conditions: peptide dendrimer, lipid and mRNA complexes; N:P 8:1, DOTMA/DOPE w/w 10:1 to mRNA
Procedure: (§1) The hydrodynamic size was measured using the dynamic light scattering (DLS) technique. DLS is a very sensitive, non-invasive method to measure size and size distribution of nanoparticles in a liquid. […] Analysing these intensity fluctuations allows us to calculate the velocity of the Brownian motion. The size of the nanoparticles can be determined by using the Stokes-Einstein relationship. With the latest technology, it can measure nanoparticles smaller than 1 nm.
PDI is used to estimate the average uniformity of a particle solution, The method of cumulants is a standard technique for analysing DLS data on sample polydispersity. PDI is a number calculated from a 2 parameter fit to the correlation data (the cumulants analysis). The cumulants analysis is used to evaluate the autocorrelation function generated by a DLS experiment. The calculation is defined in ISO 13321 and ISO 22412. PDI values greater than 0.7 indicate that the sample has a very broad size distribution and is not suitable for the DLS technique. The calculations for these parameters are defined in the ISO standard document 13321:1996 E and ISO 22412:2008.
as §1, with “Size, zeta potential and polydispersity index (PDI) measurement: The hydrodynamic” for “The hydrodynamic”, “scattering (DLS) technique using the Zetasizer Advance Series—Pro (Malvern Panalytical Ltd, Malvern, UK) according to the manufacturer's instructions. DLS is” for “scattering (DLS) technique. DLS is”
The data obtained with DLS measurements can also be used to calculate the PDI of particle in solution. PDI is used to estimate the average uniformity of a particle solution. The method of cumulants is a standard technique for analysing DLS data on sample polydispersity. PDI is a number calculated from a 2 parameter fit to the correlation data (the cumulants analysis). The cumulants analysis is used to evaluate the autocorrelation function generated by a DLS experiment. The calculation is defined in ISO 13321 and ISO 22412. PDI values greater than 0.7 indicate that the sample has a very broad size distribution and is not suitable for the DLS technique. The calculations for these parameters are defined in the ISO standard document 13321:1996 E and ISO 22412:2008.
To measure the size and PDI, the samples were diluted 16× in 25 mM HEPES buffer (5 μl sample+75 μl buffer). Parameters: reference material: polystyrene latex, dispersant: water, 25° C. The PDI measurements were measured in nanoparticles comprising a dendrimer:nucleic acid NP ratio of 8:1.

lung and spleen = assay: Luciferase mRNA expression in mouse tissues after intravenous administration (bioluminescence); type: in vivo, Balb/c mice; conditions: 6 hours, DOTMA/DOPE w/w=23:1 to mRNA, dendrimers NP=0.6:1, FIG. 11
Procedure: All animal procedures were conducted following the Animal Research Reporting of In Vivo Experiments and approved by the UK Home Office for the conduct of regulated procedures under license. For the data underlying FIG. 11, Balb/c mice aged 4 weeks were purchased from Jackon's Laboratory and left to acclimate in the new housing environment for 1-week upon their arrival. All mice were weighed and warmed for 15 min at 37 C in a heating chamber. The formulations were delivered intravenously (5 mL/kg) via the tail vein using 30 G insulin syringes (BD biosciences).
All mice were imaged 6 hours post injection. BLI was performed using an IVIS Lumina II (Perkin Elmer) imaging system. Mice were administered D-luciferin (GoldBio) at a dose of 10 uL/g. Mice were anaesthetised in a chamber with 2.5% isoflurane and then placed on a heated imaging platform while being maintained on 2.5% isoflurane. For the data underlying FIG. 11, mice were imaged 10 min post administration of D-luciferin with an exposure time set at 45 sec to ensure the signal acquired was within an effective detection range (binning medium). Bioluminescence signal was quantified by measuring photon flux (photons/s) using the Living Image software (Perkin Elmer). […] The organs were placed in the centre of imaging platform (Lumina II system) and signal was measured using the acquisition settings detailed above. […]

myeloid cells in tumour = assay: In vivo uptake of Alexafluor488 tagged mRNA by cells in tumour of MC38 bearing mice; design: species or system C57Bl/6 mice; conditions: GSCG1,2-RL, 3-LR N:P=0.16:1, DOTMA:DOPE 10:1, coat 3 eq; 2.25 mg/kg IV, 4 hours; FIG. 39
Excerpt: Compensation was adjusted using the Attune compensation beads.

lung cells = conditions: GSCG1,2-RL, 3-LR N:P=0.16:1, DOTMA:DOPE 10:1, coat 3 eq; 2.25 mg/kg IV, 4 hours; FIG. 13
Procedure: Six week old, female C57Bl/6 mice were supplied from Envigo UK. The mice were acclimatized in the animal facility for at least 7 days prior to use. […] The mice were randomised into 4 groups of n=3 when the tumours reached 0.15 cm3 (calliper measurements) and were dosed IV at 2.25 mg/kg or 3 mg/kg.
Four hours post dosing of the formulations, the animals were culled, and tissues were harvested. Terminal blood was collected in EDTA tubes and treated with Red Blood Cell Lysing Buffer HYBRI-MAX (Merck) prior to antibody staining. Spleens were dissociated by pushing through a 70 uM cell strainer using a syringe plunge. The cell suspension was then treated with Red Blood Cell Lysing Buffer HYBRI-MAX (Merck) prior to antibody staining. Lung and tumour samples were cut into small pieces and were enzymatically digested using the Lung and Tumor Dissociation Kit (mouse) and the gentleMACS™ Octo Dissociator with Heaters (Miltenyi) following the manufacturer's instructions.
The final cell suspensions were blocked with mouse Fc block prior to antibody staining. Cells were incubated with the antibody master mix at 4 C for 20 min and then they were fixed using 4% PFA for 30 min RT. They were analysed using the Attune NxT flow cytometer (Thermo Fisher) within 24 hours of fixing and data was analysed using the FlowJo_v10.8.1 software. Compensation was adjusted using the Attune compensation beads.

mouse macrophages = assay: eGFP mRNA transfection of mouse macrophages with or without mannose-dendrimer coat; type: cell-based; conditions: GSCG1,2-RHL nanoparticle NP=8:1, DOTMA/DOPE:mRNA w/w 10:1, coat 1:1 (1 eq) coating:mRNA; FIG. 6
Procedure: J774.2 cells were subcultured in DMEM supplemented with 2 mM glutamax and 10% heat-inactivated FBS (complete media). Twice a week (at about 70-80% confluency; every 3-4 days), cells were scrapped and collected into Falcon tubes, and pelleted at 400 g for 5 minutes. The cells were resuspended in complete media, counted and seeded into 10 cm dishes at a density of 1.7-2.5E+4 cells/cm^2. For M2 polarisation, the cells were treated with complete media supplemented with 20 ng/ml recombinant murine IL-4 and 20 ng/ml recombinant murine IL-13 (activation media) over a 48 hr period. After 24 hrs in IL-4 and IL-13 containing medium, the cells scrapped and collected as described above. The cells were seeded into 24-well plates at a density of 1.2E+5 cells/well in 0.5mls/well complete media containing 20 ng/ml IL-4 and IL-13.
The media overlaying the polarised J774.2 cells was aspirated and exchanged with 480 ul/well activation media. 120 ul/well of each test condition (total volume was 600 ul/well) was added (test conditions were prepared in 25 mM HEPES solution). Control conditions were prepared consisting of neat 25 mM HEPES and an mRNA control. Between addition of each test condition the plate was shaken back and forth to ensure mixing. The plate was placed into the incubator overnight.
Staining and fixation for both human and mouse-derived macrophages was carried out as follows. After 24 hrs the media overlaying each test condition was transferred to corresponding 1.5 ml Eppendorf tubes (in order to conserve cells that may have died during transfection). Cells were then washed with 300 ul/well PBS which was transferred to the corresponding tubes. 500 ul/well 5 mM EDTA was added to each well and the plate(s) transferred to the 37° C. incubator for 5-10 minutes until the cells started to detach. Cells were then transferred from the plate to the corresponding 1.5 ml tubes. Cells were pelleted down at 300 g for 5 minutes and resuspended in 100 ul/sample fixable Live/Dead Aqua stain. ArC beads were stained with 3 ul neat Live/Dead Aqua for compensation. These cells were stained on ice for 30 minutes. Following this, the tubes were spun down at 300 g for 5 minutes. The supernatant was discarded, and the cells were resuspended in 500 ul/sample PBS. Negative ArC beads were added to the compensation control. GFP compensation beads were dispensed into separate tube as the GFP compensation control. The samples were spun down at 300 g for 5 minutes. Samples were then resuspended in 100 ul/sample of Reagent A from the Invitrogen Fix/Perm kit and left at room temperature for 15 minutes. The samples were spun down at 400 g for 5 minutes and the supernatant was disposed. The samples were once again washed with PBS and spun down at 300 g for 5 minutes. The cells were finally resuspended in 400 ul/sample FACS buffer (PBS+2 mM EDTA+0.5% w/v BSA) for flow analysis. Samples were stored in the fridge prior to flow analysis and run within 24 hrs of fixation.
12 μl of a nanoparticle formulation was aliquoted into a sterile 0.5 ml polypropylene tube. 4 μl of a 0.3 mg/ml, 0.6 mg/ml or 1.8 mg/ml solution of (Ac-EEEE)2[…][(S-S)-α-D-Thiomannose] (for a mRNA:coating mass ratio of 1:0.5, 1:1 or 1:3, respectively) was mixed by rapidly pipetting up and down 10-15 times, and allowed to incubate for 5 minutes.
Macrophages, and in particular M2-phenotype macrophages, are known to have enriched surface expression of the receptor CD206, the ligand for which is mannose.

Polydispersity Index (PDI) [1] | delivery of luciferase mRNA cargo to lung and spleen (bioluminescence) (lung and spleen) | Substance | uptake by CD206+ M2 macrophage cells in tumour versus non-coated nanocarrier and LPX-mRNA (myeloid cells in tumour) | uptake by CD206+ cells in the lung versus non-coated nanocarrier and LPX-mRNA (lung cells) | uptake in the lung cells versus non-coated nanocarrier and LPX-mRNA (lung cells) | increase of transfection efficiency compared to a non-coated nanoparticle (mouse macrophages) [%]
0.581 | further improved | (LRLR)2KGSC-NH2 [GSCG1-LRLR] |  |  |  | 
 |  | (Ac-EEEE)2KGSGGSGGSC[(S-S)-α-D-Thiomannose] [Mannose-G1-EEEE] | more effectively | more effectively | higher uptake in the lung cells | ~10

— patent US20260014278A1, “HYBRID PEPTIDE DENDRIMER SYSTEMS AND EXTRAHEPATIC DELIVERY” (NUNTIUS THERAPEUTICS LIMITED, priority 2022, published 2026)
